# Assay results as given in US12063914B2, “DNA sequence that increases odorant receptor representation in the olfactory system” (Research Foundation of the City University of New York, priority 2015, dated 2024).
# How the values were obtained:
# [1] = biological target: T1, M71 (Mus musculus, UniProt Q60893); settings: previous ex vivo data; liquid phase; cited from earlier work
# T1 construct: from ex vivo analysis of genetically defined M71 OSNs in gene-targeted mice; host or cells: dendritic knobs of M71-expressing olfactory sensory neurons from gene-targeted mice
# T1 sequence (Q60893 1-309): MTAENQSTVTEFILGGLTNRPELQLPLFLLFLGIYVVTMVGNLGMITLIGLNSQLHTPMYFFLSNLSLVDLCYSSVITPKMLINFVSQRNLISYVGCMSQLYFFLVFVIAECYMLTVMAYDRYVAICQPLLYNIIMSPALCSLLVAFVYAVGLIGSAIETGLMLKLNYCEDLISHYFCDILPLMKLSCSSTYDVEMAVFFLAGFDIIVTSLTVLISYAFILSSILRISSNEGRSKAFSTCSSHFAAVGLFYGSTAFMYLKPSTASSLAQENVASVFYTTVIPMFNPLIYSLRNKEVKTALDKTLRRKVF
# [2] = biological target: T2, M71 OR (Mus musculus, UniProt Q60893); test: In vivo synaptophluorin (SpH) imaging of odor-evoked glomerular activity in 4•M71Cα mice; settings: for glomerular activity (in vivo SpH imaging): 4•M71Cα animals, vapor phase, odor dilutions 0% to 15%; for average highest (dF/F)max: hemizygous 4•M71Cα animals, ACP at 1.77 uM, 24dMACP at 0.66 uM; for average highest (dF/F)max / highest efficacy [(dF/F)max]: 4MACP at 0.69 uM; for efficacy [average (dF/F)max]: delivered at the same concentration, ˜0.70 uM; for highest efficacy [(dF/F)max]: homozygous 4•M71Cα animals, ACP at 2.66 uM, 24dMACP at 0.46 uM; for efficacy [(dF/F)max]: 0.71 uM; for response [(dF/F)max] at highest concentration delivered: 2.66 uM
# T2 construct: the increase of OSNs expressing the M71 OR results in the coalescence of labeled axons; expressed in transfected cells; host or cells: olfactory sensory neurons of living transgenic mice (4•M71Cα, 5•M71Cα), made by pronuclear injection of the M71 minigene
# T2 sequence (Q60893 1-309): T1 sequence (Q60893 1-309)
# Description: Because the M71 OR is dorsally expressed in the olfactory bulb, any cloned OR using the M71 transgenic backbone will coalesce its axons onto dorsally located glomeruli, which makes them accessible for optical imaging. Optical imaging was therefore used to functionally characterize transgenic M71 projections in the OB. To examine their functional properties odor-evoked activity was imaged from the OBs of mice expressing the genetically encoded activity reporter SpH in all mature OSNs. Simultaneously recordings were obtained from mice that are either hemizygous or homozygous for 4•M71Cα (gene-targeted M71-GFP is out crossed) and heterozygous for SpH and identify red M71 glomeruli. Seven different M71-selective ligands were used from ex vivo analysis of genetically defined M71 OSNs in gene-targeted mice: three of these ligands produced responses by SpH imaging: Acetophenone (ACP), 4-methyl acetophenone (4MACP) and 2,4-dimethyl acetophenone (24dMACP) when delivered at different odor dilutions varying between 0% and 15%. The maximum change in fluorescence [(dF/F)max] per odor concentration was calculated for each compound over a 14 s trial period having a pre-odor (3 s), odor (4 s) and post-odor (4 s) acquisition. dF/F values for all glomeruli were calculated with a standardized 50 μm window, which is fully contained in all imaged glomeruli of both hemi and homo 4•M71Cα animals. (FIG. 2A, FIG. 2B and FIG. 2C: Each data point represents the average (dF/F). of 4-16 glomeruli imaged). […] All imaged mice are heterozygous for omp-SpH.
# Olfactometry: Odors (purchased form Sigma Aldrich) were delivered using a custom built olfactometer controlled by an Arduino board with custom shields operating Teflon solenoids (Neptune Research) and connected to two Mass Flow Controllers (Alicat Scientific, Inc) to dilute the clean air (N2, max flow is 2 Lpm) and to dilute the odorized air (max flow is 300 SCCM). Nitrogen (N2) was used as the vapor carrier to avoid oxidation. Odor concentrations are expressed a % dilutions of saturated vapor and as molar saturated vapor concentration (μM s.v.), calculated using published vapor pressures at 25° Celsius (US EPA, Estimation Programs Interface Suite, v 4.0. Flow diluted odors were delivered at 2 Lpm mixed prior to the delivery site with air odorized with varying dilutions of odorant taken from the saturated headspace of pre-cleaned amber vials with white polypropylene closures and septum (J. G. Finneran) containing 99% pure odorants. To avoid contamination of the olfactometer, odorized air was never passed through the Teflon valves. Instead, odors were mixed with N2 in T-shaped mixing chambers (Neptune Research) and delivered to the animal's nose using an arduino controlled vacuum system. […] Output of the olfactometer was calibrated using the tracer odor Pinene and a photoionization detector (PID; Aurora Scientific).
# In vivo SpH Imaging: Mice were anesthetized using Ketamine (100 mg/kg)/Xylazin (5 mg/kg) and maintained with Isoflurane (2.5% in 02) and immobilized using a stereotactic head holding device (Narishige, Inc.). Optical signals for SpH and mCherry were recorded using an ANDOR Neo 5.5 sCMOS camera connected to a NIKON AZ100 epifluorescence microscope (NIS Elements) with a 4× objective (numerical aperture 0.4). Excitation wavelengths of 475 nm for SpH and 575 nm for mCherry and emission of 520 nm for SpH and 635 nm for mCherry were used to obtain images of the dorsolateral bulb through thinned skull overlaying the bulb of a freely breathing animal. Each imaging trial consisted of a pre-odor (3 s), odor (4 s) and post-odor (4 s) acquisition, with a total acquisition time per trial of 14 s (including 3 s of valve switch delay). Using serial code, the arduino controlling the olfactometer was integrated in the NIS Elements software, so that the entire image acquisition sequence and flow-diluted odor delivery is controlled by the microscope software. […]
# [3] = at 25° C.; cited from earlier work
# [4] = biological target: T3, human OR1A1 receptor (Homo sapiens, UniProt Q9P1Q5); test: Two-bottle behavioral avoidance task with (−)-Carvone in 5•OR1A1Cβ mice; assay type: in vivo, mouse
# T3 construct: expressed in transfected cells; host or cells: olfactory sensory neurons of living 5•OR1A1Cβ hemizygous transgenic mice
# T3 sequence (Q9P1Q5 1-309): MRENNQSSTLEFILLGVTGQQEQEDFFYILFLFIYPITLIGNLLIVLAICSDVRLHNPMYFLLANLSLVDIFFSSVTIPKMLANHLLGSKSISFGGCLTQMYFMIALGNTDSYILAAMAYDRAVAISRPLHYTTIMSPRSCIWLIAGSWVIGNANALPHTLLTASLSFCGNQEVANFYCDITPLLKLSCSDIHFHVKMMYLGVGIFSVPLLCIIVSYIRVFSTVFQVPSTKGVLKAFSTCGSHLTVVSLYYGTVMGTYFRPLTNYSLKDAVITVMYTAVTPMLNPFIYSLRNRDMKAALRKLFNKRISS
# Description: To further evaluate the versatility of this platform, the probability of choice of expression of a human OR was increased by cloning OR1A1 into the 5×21 M71 transgenic backbone. […] Again omp levels were not changed. Clearly, the representation of some ORs must be decreased to explain this equilibrium. In the 4•M71Cα homo animals, a mere 2-log increase in M71 RNA levels leads to a detectable 0.3-log change in threshold. Therefore, without wishing to be bound to any particular theory, it is believed that further increases in the neuronal representation of specific ORs may decrease detection thresholds even more. However, a delicate balance must exist between cell number and sensitivity. This hypothesis was tested using the established two-bottle behavioral avoidance task with the 5•OR1A1Cβ mice (FIG. 3B). Conditioning of 5•OR1A1Cβ hemi animals (n=12) was performed and their WT littermates (n=7) to water containing a 10-4 dilution of (−)-Carvone, a known OR1A1 ligand. For four consecutive days, animals were given the choice between plain water and water with decreasing (10-4, 10-6, 10-7 and 10-8) dilutions of (−) Carvone (FIG. 3C). Both groups (WT and Hemi) show clear aversion towards a 10^−4 dilution of (−)-Carvone (AVG PI WT=6.17% and AVG PI hemi=10.26%), reflecting successful conditioning. Both WT (AVG PI=55.52%) and Hemi (AVG PI=47.88%) cannot detect a 10^−8 dilution of (−)-Carvone. At 10^−6 and 10^−7 however, there is a clear difference in detection between WT and Hemi (10^−6: AVG PI WT=27.65% vs. AVG PI Hemi=11.41, Student's T-test p<0.01 and 10^−7: AVG PI WT=53.88% vs. AVG PI Hemi=30.24, Student's T-test p<0.05). […] These findings indicate that expressing OR1A1 in about 40% of the OSNs translates into a 2-log difference in (−)-Carvone detection thresholds.
# Olfactory behavior test: A two-bottle discrimination test was performed as previously described. Since the mice are tested for the ability to detect a single odor in drinking water at increasingly lower concentrations, this discrimination assay is also considered a detection threshold test. Mice 8 weeks old were individually housed and given food ad libitum but restricted access to saccharin-phthalic acid solution (2.1×10^−2 M sodium saccharin and 10^−3M phthalic acid pH 6.5) for 1 h twice a day for two days before the assay begins. This ensures mice would commence drinking the solution during the conditioning. On day 3 (conditioning day) mice are exposed to sodium saccharine phthalic acid (SSPA) solution with 1 dilution of odorized water for 10 minutes. Immediately after, they are injected with lithium chloride intraperitoneally (15 μl/g body weight of a 0.6 M solution) to induce the aversive malaise and lethargy state. After two hours mice are returned to their home cage and given access to two bottles of drinking water; they are given the choice between SSPA solution containing a 10^−4 dilution of the odor versus the non-odorized SSPA solution. During the following 3 days, every 24 hours, the location of the bottles is reversed and the concentration of the odorized solution is decreased to 10^−6, 10^−7 and 0.5×10^−6, respectively. Every day both bottles are weighed to determine the amount of liquid consumed. A preference index was calculated as the amount of odorized solution consumed divided by the total amount of water solution consumed for each mouse for every 24 hour test period at each odor concentration. Student's t test was performed to test statistical significance, assuming two-tailed distribution and two-sample unequal variance. Values are mean±SEM and are plotted on a LOG scale.
smiles,measurement,setting,value
O=Cc1ccccc1 [benzaldehyde],elicit a M71 response ex vivo,[1],did
same,ex vivo responder grade,[1],low responder
COc1ccc(C(C)=O)cc1 [4-metoxyacetophenone],elicit a M71 response ex vivo,[1],did
same,ex vivo responder grade,[1],high responder
same,glomerular activity (in vivo SpH imaging),[2],does not show glomerular activation
same,saturated vapor pressure (Ps),[3],0.0133 mmHg
COC(=O)c1ccccc1 [methylbenzoate],elicit a M71 response ex vivo,[1],did not
"CC(=O)c1ccc(C)cc1 [4MACP, 4-methyl acetophenone]",elicit a M71 response ex vivo,[1],did
same,glomerular activity (in vivo SpH imaging),[2],observed
same,average highest (dF/F)max,[2],4.48%
same,efficacy [average (dF/F)max],[2]; hemizygous animals,4.48%
same,highest efficacy [(dF/F)max],[2],3.82%
same,average efficacy (of all concentrations and odors),[2]; homozygous animals,3.83%
same,saturated vapor pressure (Ps),[3],0.0849 mmHg
CCc1occc(=O)c1O [ethylmalthol],elicit a M71 response ex vivo,[1],did
NCC(=O)c1ccccc1 [2 amino acetophenone],elicit a M71 response ex vivo,[1],did
"C=C(C)C1CC=C(C)C(=O)C1 (single isomer, unassigned; (-)) [(−)-Carvone]",difference in detection thresholds,[4]; 5•OR1A1Cβ hemi vs WT,2 log
same,AVG PI,"[4]; 5•OR1A1Cβ hemi, 10^−4 dilution",10.26%
same,AVG PI,"[4]; 5•OR1A1Cβ hemi, 10^−6 dilution",11.41
same,AVG PI,"[4]; 5•OR1A1Cβ hemi, 10^−7 dilution",30.24
same,AVG PI,"[4]; 5•OR1A1Cβ hemi, 10^−8 dilution",47.88%
same,AVG PI,"[4]; WT littermates, 10^−4 dilution",6.17%
same,AVG PI,"[4]; WT littermates, 10^−6 dilution",27.65%
same,AVG PI,"[4]; WT littermates, 10^−7 dilution",53.88%
same,AVG PI,"[4]; WT littermates, 10^−8 dilution",55.52%
CC(C)[C@@H]1CC[C@@H](C)CC1=O [menthone],elicit a M71 response ex vivo,[1],did not
"CC(=O)c1ccccc1 [ACP, Acetophenone]",elicit a M71 response ex vivo,[1],did
same,glomerular activity (in vivo SpH imaging),[2],observed
same,average highest (dF/F)max,[2],3.49%
same,efficacy [(dF/F)max],[2]; hemizygous animals,0.73%
same,efficacy [average (dF/F)max],[2]; hemizygous animals,0.73%
same,response [(dF/F)max] at highest concentration delivered,[2]; heterozygous (hemizygous) animals,3.46%
same,highest efficacy [(dF/F)max],[2],4.57%
same,efficacy [(dF/F)max],[2]; homozygous animals,3.00%
same,response [(dF/F)max] at highest concentration delivered,[2]; homozygous animals,4.57%
same,saturated vapor pressure (Ps),[3],0.3260 mmHg
